From US7268159B2, “Substituted indoles” (Wyeth, priority 2003, dated 2007)

Experiments:
[1] = target: T1, recombinant human plasminogen activator inhibitor-1 (PAI-1) (Homo sapiens, UniProt P05121); assay: Primary screen for the PAI-1 inhibition (residual tPA activity, Spectrozyme-tPA chromogenic substrate); assay type: biochemical; conditions: 140 nM PAI-1, 70 nM tPA, pH 6.6; for inhibition at 10 µM: 10 μM test compound; for inhibition at 25 µM: 25 μM test compound
T1 construct: purchased Molecular Innovations, Royal Oak, Mich
Description: Test compounds are dissolved in DMSO at a final concentration of 10 mM, then diluted 100× in physiologic buffer. The inhibitory assay is initiated by the addition of the test compound (1-100 μM final concentration, maximun DMSO concentration of 0.2%) in a pH 6.6 buffer containing 140 nM recombinant human plasminogen activator inhibitor-1 (PAI-1; Molecular Innovations, Royal Oak, Mich.). Following a 1 hour incubation at room temperature, 70 nM of recombinant human tissue plasminogen activator (tPA) is added, and the combination of the test compound, PAI-1 and tPA is incubated for an additional 30 minutes. Following the second incubation, Spectrozyme-tPA (American Diagnostica, Greenwich, Conn.), a chromogenic substrate for tPA, is added and absorbance read at 405 nm at 0 and 60 minutes. Relative PAI-1 inhibition is equal to the residual tPA activity in the presence of the test compound and PAI-1. Control treatments include the complete inhibition of tPA by PAI-1 at the molar ratio employed (2:1), and the absence of any effect of the test compound on tPA alone.

[2] = target: human PAI-1 (Homo sapiens, UniProt P05121); assay: Assay for determining IC50 of inhibition of PAI-1 (active PAI-1 bound to tPA-coated plate, antibody detection); assay type: binding; conditions: human PAI-1 50 ng/ml, pH 7.5
Description: This assay is based upon the non-SDS dissociable interaction between tPA and active PAI-1. Assay plates are initially coated with human tPA (10 μg/ml). Test compounds of the present invention are dissolved in DMSO at 10 mM, then diluted with physiologic buffer (pH 7.5) to a final concentration of 1-50 μM. Test compounds are incubated with human PAI-1 (50 ng/ml) for 15 minutes at room temperature. The tPA-coated plate is washed with a solution of 0.05% Tween 20 and 0.1% BSA, then the plate is blocked with a solution of 3% BSA. An aliquot of the substituted indole/PAI-1 solution is then added to the tPA-coated plate, incubated at room temperature for 1 hour, and washed. Active PAI-1 bound to the plate is assessed by adding an aliquot of a 1:1000 dilution of the 33B8 monoclonal antibody against human PAI-1, and incubating the plate at room temperature for 1 hour (Molecular Innovations, Royal Oak, Mich.) The plate is again washed, and a solution of goat anti-mouse IgG-alkaline phosphatase conjugate is added at a 1:50,000 dilution in goat serum. […] The plate is incubated 45 minutes at room temperature, and color development is determined at OD405 nm. The quantitation of active PAI-1 bound to tPA at varying concentrations of the test compound is used to determine the IC50. Results are analyzed using a logarithmic best-fit equation. […]

T1 sequence (P05121 24-402): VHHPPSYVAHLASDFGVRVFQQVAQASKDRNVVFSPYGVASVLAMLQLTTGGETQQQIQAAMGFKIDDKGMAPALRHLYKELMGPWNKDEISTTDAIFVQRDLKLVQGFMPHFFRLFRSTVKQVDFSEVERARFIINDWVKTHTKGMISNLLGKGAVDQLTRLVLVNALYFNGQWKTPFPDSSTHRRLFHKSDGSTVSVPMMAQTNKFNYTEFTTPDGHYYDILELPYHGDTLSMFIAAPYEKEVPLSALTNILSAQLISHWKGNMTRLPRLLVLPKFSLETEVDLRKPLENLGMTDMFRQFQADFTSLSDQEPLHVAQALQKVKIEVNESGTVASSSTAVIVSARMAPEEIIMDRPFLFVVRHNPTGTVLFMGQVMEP
human PAI-1, sequence (P05121 24-402): as above

Structure (SMILES)	inhibition at 10 µM [1] [%]	inhibition at 25 µM [1] [%]	IC50 [2] [µM]
O=C(O)c1c(-c2ccccc2)c2ccccc2n1Cc1ccc(Nc2ccccc2)cc1 [Compound 16, 1-(4-anilinobenzyl)-3-phenyl-1H-indole-2-carboxylic acid]	26	32	
CC(C)(C)c1ccc(S(=O)(=O)Nc2ccc(Cn3cc(C(=O)O)c4ccccc43)cc2)cc1 [Compound 6, 1-(4-{[(4-tert-butylphenyl)sulfonyl]amino}benzyl)-1H-indole-3-carboxylic acid]	19	28	
O=C(O)c1c(-c2cccs2)c2ccccc2n1Cc1ccc(NS(=O)(=O)c2ccccc2)cc1 [Compound 13, 1-{4-[(phenylsulfonyl)amino]benzyl}-3-thien-2-yl-1H-indole-2-carboxylic acid]	50	79	
Cc1ccc(C)n1-c1ccc(Cn2c(C(=O)O)c(-c3ccccc3)c3ccccc32)cc1 [Compound 15, 1-[4-(2,5-dimethyl-1H-pyrrol-1-yl)benzyl]-3-phenyl-1H-indole-2-carboxylic acid]	53	69	2.51
O=C(O)c1cc2ccccc2n1-c1ccc(-n2cccc2)cc1 [Compound 2, 1-[4-(1H-pyrrol-1-yl)phenyl]-1H-indole-2-carboxylic acid]	15	35	
CS(=O)(=O)Nc1ccc(Cn2c(C(=O)O)c(-c3cccs3)c3ccccc32)cc1 [Compound 14, 1-{4-[(methylsulfonyl)amino]benzyl}-3-thien-2-yl-1H-indole-2-carboxylic acid]	45	53	
O=C(O)c1c(-c2cccs2)c2ccccc2n1Cc1ccc(Nc2ccccc2)cc1 [Compound 17, 1-(4-anilinobenzyl)-3-thien-2-yl-1H-indole-2-carboxylic acid]	25	35	
O=C(O)c1cc2ccccc2n1-c1ccc(NS(=O)(=O)c2ccc(OC(F)(F)F)cc2)cc1 [Compound 1, 1-[4-({[4-(trifluoromethoxy)phenyl]sulfonyl}amino)phenyl]-1H-indole-2-carboxylic acid]	39	40	
O=C(O)c1cn(Cc2ccc(NS(=O)(=O)c3ccc(-c4ccccc4)cc3)cc2)c2ccccc12 [Compound 7, 1-{4-[(1,1′-biphenyl-4-ylsulfonyl)amino]benzyl}-1H-indole-3-carboxylic acid]	25	27	
CS(=O)(=O)Nc1ccc(Cn2c(C(=O)O)c(-c3ccccc3)c3ccccc32)cc1 [Compound 12, 1-{4-[(methylsulfonyl)amino]benzyl}-3-phenyl-1H-indole-2-carboxylic acid]	42	49	

More lines, now with the values ahead:

inhibition at 10 µM [1] [%]	inhibition at 25 µM [1] [%]	IC50 [2] [µM]	Structure (SMILES)
26	30		O=C(O)c1ccc2ccn(Cc3ccc(NS(=O)(=O)c4ccc(-c5ccccc5)cc4)cc3)c2c1 [Compound 10, 1-{4-[(1,1′-biphenyl-4-ylsulfonyl)amino]benzyl}-1H-indole-6-carboxylic acid]
	22		O=C(O)c1ccc2c(ccn2Cc2ccc(NS(=O)(=O)c3ccc(-c4ccccc4)cc3)cc2)c1 [Compound 5, 1-{4-[(1,1′-biphenyl-4-ylsulfonyl)amino]benzyl}-1H-indole-5-carboxylic acid]
27	47		CC(C)(C)c1ccc(S(=O)(=O)Nc2ccc(Cn3ccc4c(C(=O)O)cccc43)cc2)cc1 [Compound 8, 1-(4-{[(4-tert-butylphenyl)sulfonyl]amino}benzyl)-1H-indole-4-carboxylic acid]
26	35		O=C(O)c1cccc2c1ccn2Cc1ccc(NS(=O)(=O)c2ccc(-c3ccccc3)cc2)cc1 [Compound 9, 1-{4-[(1,1′-biphenyl-4-ylsulfonyl)amino]benzyl}-1H-indole-4-carboxylic acid]
51	71		O=C(O)c1c(-c2ccccc2)c2ccccc2n1Cc1ccc(NS(=O)(=O)c2ccccc2)cc1 [Compound 11, 3-phenyl-1-{4-[(phenylsulfonyl)amino]benzyl}-1H-indole-2-carboxylic acid]
	66		O=C(O)c1cc2ccccc2n1Cc1ccc(NS(=O)(=O)c2ccc(-c3ccccc3)cc2)cc1 [Compound 3, 1-{4-[(1,1′-biphenyl-4-ylsulfonyl)amino]benzyl}-1H-indole-2-carboxylic acid]
	27		CC(C)(C)c1ccc(S(=O)(=O)Nc2ccc(Cn3ccc4cc(C(=O)O)ccc43)cc2)cc1 [Compound 4, 1-(4-{[(4-tert-butylphenyl)sulfonyl]amino}benzyl)-1H-indole-5-carboxylic acid]
